According to patent US20250073249A1, “STEROID COMPOUND, AND PREPARATION METHOD THEREFOR AND USE THEREOF” (SHANGHAI INSTITUTE OF MATERIA MEDICA, CHINESE ACADEMY OF …, priority 2022, published 2025):
Like-named read-outs stand apart in the source and are kept apart here.

Assays:
[1] = In vivo pharmacokinetics in rats after oral gavage; conditions: male SD rats, PO 10 mg/kg
Description: Male SD rats were randomly divided into 6 groups, 3 rats per group. The rats were fasted but not water-deprived for 12-14 h one day before dosing. The test samples were then dissolved in a solvent of 5% DMSO+30% PEG400+65% (0.5% MC) and administered by gavage at 10 mg/kg. Food was provided 4 h after dosing. Blood samples (0.10 mL) were collected via the orbital sinus at 0, 15, 30 min, 1, 2, 4, 6, 8, and 24 h, with EDTA-K2 as anticoagulant. Blood samples were placed on ice after collection and centrifuged to separate plasma within 30 minutes (centrifugation conditions: 5000 rpm, 10 minutes, 4° C.). 50.0 μL of plasma sample (taken from −80° C. freezer, thawed naturally at room temperature and vortexed for 30 seconds) was added to a 1.5 mL centrifuge tube, followed by addition of 500 μL internal standard solution (methanol (TEDIA, HPLC grade), acetonitrile (TEDIA, HPLC grade), formic acid (FA, ACROS ORGANICS, HPLC grade), water was laboratory-made ultrapure water (100.0 ng·mL−1)). The mixture was vortexed for 60 seconds and centrifuged for 3 minutes (centrifugal force 12000 rpm). 100 μL of the supernatant was transferred to a 96-well injection plate containing an equal volume of water, mixed by shaking, and analyzed by LC-MS/MS with an injection volume of 10 μL. The data acquisition and control system software was Analyst 1.5.1 software (Applied Biosystem). The chromatographic sample peaks were integrated automatically. The ratio of sample peak area to internal standard peak area was used as an indicator for regression with sample concentration.
The pharmacokinetic parameters of representative compounds of the present invention were tested in male SD rats after oral gavage administration at 10 mg/kg according to the above conventional method to examine the pharmacokinetic characteristics of the compounds of the present invention in rats.

AR = target: T1, AR (Homo sapiens, UniProt P10275, T878A); test: In vitro AR degradation activity test in LNCaP cells (ELISA, OD450); format: cell-based; conditions: for DC50: LNCaP cells, 24 hours; for AR degradation activity, improvement compared to Galeterone: ratio to Galeterone DC50
T1 construct: endogenous in cells; host or cells: LNCaP
T1 sequence (P10275 1-920 T878A): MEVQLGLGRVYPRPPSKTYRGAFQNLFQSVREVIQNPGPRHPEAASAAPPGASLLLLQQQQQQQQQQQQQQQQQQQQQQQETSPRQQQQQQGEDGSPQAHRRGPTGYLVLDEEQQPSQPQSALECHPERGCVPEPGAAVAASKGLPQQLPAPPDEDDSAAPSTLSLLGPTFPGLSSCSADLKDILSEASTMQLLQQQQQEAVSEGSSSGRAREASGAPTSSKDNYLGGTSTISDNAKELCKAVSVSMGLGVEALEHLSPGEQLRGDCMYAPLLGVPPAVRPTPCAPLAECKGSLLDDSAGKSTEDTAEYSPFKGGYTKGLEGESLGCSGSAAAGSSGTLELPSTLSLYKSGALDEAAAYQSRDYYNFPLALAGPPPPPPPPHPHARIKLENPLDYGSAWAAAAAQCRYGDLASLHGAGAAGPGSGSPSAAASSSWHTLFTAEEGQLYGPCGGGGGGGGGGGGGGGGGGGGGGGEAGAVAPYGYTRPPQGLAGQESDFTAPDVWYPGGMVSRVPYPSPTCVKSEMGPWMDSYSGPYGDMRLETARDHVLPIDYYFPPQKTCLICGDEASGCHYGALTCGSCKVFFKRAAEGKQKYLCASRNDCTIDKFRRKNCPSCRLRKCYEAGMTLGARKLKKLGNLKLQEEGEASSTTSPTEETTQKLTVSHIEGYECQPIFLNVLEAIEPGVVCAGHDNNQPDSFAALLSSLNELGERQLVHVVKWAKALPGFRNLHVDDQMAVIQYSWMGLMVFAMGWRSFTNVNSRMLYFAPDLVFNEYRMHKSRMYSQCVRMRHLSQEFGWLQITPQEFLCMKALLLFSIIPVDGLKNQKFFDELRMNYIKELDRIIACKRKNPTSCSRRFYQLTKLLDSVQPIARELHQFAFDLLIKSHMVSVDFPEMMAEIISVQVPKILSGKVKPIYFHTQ
Procedure, shortened: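 AR in protein-normalized lysates was quantified by sandwich ELISA with HRP detection at OD450. Degradation rate (%) was computed from OD450 max/min controls, and IC50 was derived from it.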

SMILES	Cmax [1]	Kel [1]	MRTPO [1]	T1/2 [1]	tmax [1]	AUC(0-inf) ([1]; rat, plasma)	AUC(0-t) ([1]; rat, plasma)	Cmax ([1]; rat, plasma, read-out: Cmax)	DC50 (AR)	AR degradation activity, improvement compared to Galeterone (AR)
Cc1cn(C2=CCC3C4CC=C5C[C@@H](NC(=O)c6ccncc6)CC[C@]5(C)C4CC[C@]23C)cn1 (stereo partly drawn) [Compound 14, N-((3S,10R,13S)-10,13-dimethyl-17-(4-methyl-1H-imidazol-1-yl)-2,3,4,7,8,9,10,11,12,13,14,15-dodecahydro-1H-cyclopenta[a]phenanthren-3-yl)isonicotinamide]	2670 ng/mL	0.252 h⁻¹	5.12 h	2.80 h	2.17 h	24800 ng·h/mL	24800 ng·h/mL			
Cc1cn(C2=CCC3C4CC=C5C[C@@H](NC(=O)c6ccc(F)cc6F)CC[C@]5(C)C4CC[C@]23C)cn1 (stereo partly drawn) [Compound 37, N-((3S,10R,13S)-17-(4-methyl-1H-imidazol-1-yl)-10,13-dimethyl-2,3,4,7,8,9,10,11,12,13,14,15-dodecahydro-1H-cyclopenta[a]phenanthren-3-yl)-2,4-difluorobenzamide]		0.124 h⁻¹	10.0 h	6.02 h	6.00 h	24500 ng·h/mL	22500 ng·h/mL	1550 ng/mL	1.68 µM	6.2 times
Cc1cn(C2=CCC3C4CC=C5C[C@@H](NC(=O)c6ccc(F)cc6)CC[C@]5(C)C4CC[C@]23C)cn1 (stereo partly drawn) [Compound 33, N-((3S,10R,13S)-17-(4-methyl-1H-imidazol-1-yl)-10,13-dimethyl-2,3,4,7,8,9,10,11,12,13,14,15-dodecahydro-1H-cyclopenta[a]phenanthren-3-yl)-4-fluorobenzamide]	6431 ng/mL	0.214 h⁻¹	6.03 h	3.28 h	4.00 h	69500 ng·h/mL	68900 ng·h/mL		1.28 µM	8.1 times
Cc1cn(C2=CCC3C4CC=C5C[C@@H](NC(=O)c6ccc(S(C)(=O)=O)cc6)CC[C@]5(C)C4CC[C@]23C)cn1 (stereo partly drawn) [Compound 35, N-((3S,10R,13S)-17-(4-methyl-1H-imidazol-1-yl)-10,13-dimethyl-2,3,4,7,8,9,10,11,12,13,14,15-dodecahydro-1H-cyclopenta[a]phenanthren-3-yl)-4-(methylsulfonyl)benzamide]									1.56 µM	6.7 times
